From patent publication US5759827A, “Acylated oligopeptides for transfecting cells” (Hoffmann-La Roche Inc., priority 1995, dated 1998)
Square brackets hold non-standard residues; d marks the D form. Peptide text beside a SMILES is read from it. * marks the point of attachment. Palmitoyl = CCCCCCCCCCCCCCCC(=O)*; dDab = NCC[C@@H](N)C(=O)O; Orn = NCCC[C@H](N)C(=O)O; dDap = NC[C@@H](N)C(=O)O; Dab = NCC[C@H](N)C(=O)O; Dap = NC[C@H](N)C(=O)O; NHNH2 = NN*

Legend:
Assay type in all cases: cell-based
COS-1 cells = test: Transfection efficiency in COS-1 cells with a beta-galactosidase encoding plasmid; conditions: for Beta-galactosidase activity 0.2 μg DNA/well / Beta-galactosidase activity 1 μg DNA/well: formulated as in example 1 (DOPE liposomes added to compound/DNA), 48 h after transfection
Procedure: Dioleoyl phosphatidylethanolamine (DOPE, Avanti Polar Lipids Inc.) liposomes were prepared by drying under vacuum the lipid in solution in chloroform and then rehydrating the lipid film with 30 mM Tris Cl pH 8.5. Final lipid concentration was 2 mM. The lipid dispersion was subsequently sonicated for 10-15 min in a sonicator bath (Elgasonic, 50 kHz).
(§1) Twenty μg of plasmid DNA were diluted with 260 μl of distilled, sterile water in a polystyrene sterile tube. […] 140 μl of DOPE liposomes were then slowly added, drop by drop, to obtain a molar ratio between DOPE and Nγ-palmitoyl-D-(α,γ-diaminobutyryl)-L-(α,γ-diaminobutyric acid) hydrazide of 5:1. The complex was carefully mixed. The preparation was allowed to stand at room temperature during about 5 min and was then added to COS-1 cells grown in 96-well plates.
as §1, with “Mixed micelles of DOPE (2 μmoles) and dicaproyl phosphatidylcholine (15 μmotes) were prepared by drying the lipids under vacuum and then rehydrating the lipid film with 1 ml of 30 mM TrisCl buffer pH 8.5. Twenty” for “Twenty”, “pCH110” for “DNA”, “distilled” for “distilled, sterile”, “DOPE/dicyproyl PC mixed micelles” for “DOPE liposomes”, “added” for “added, drop by drop,”
The mixture was added to 20 μg of plasmid DNA in 260 μl of distilled water, so that the +/- charge ratio between Nγ-palmitoyl-D-(α,γ-diaminobutyryl)-L-(α,γ-diaminobutyric acid) hydrazide and plasmid DNA was 2:1. The complex was carefully mixed. The preparation was allowed to stand at room temperature during about 5 min and was then added to COS-1 cells grown in 96-well plates.

CHO K1 = test: Transfection efficiency with a luciferase encoding vector, CHO K1 cell-line
Procedure: (§2) A transfecting complex with Nγ-palmitoyl-D-(α,γ-diaminobutyryl)-L-(α,γ-diaminobutyric acid) hydrazide (compound A) was prepared as described in example 1. Lipofectamine™ complex was prepared following manufacturer's instructions. The transfection efficiency of both systems was compared in various cell-lines using a luciferase encoding vector.
(§3) Cells were transfected with a luciferase encoding plasmid and luciferase activity was measured 48 h after transfection. Results are expressed as relative light units.

LM tk- = test: Transfection efficiency with a luciferase encoding vector, LM tk- cell-line
Procedure: as §2, §3

HeLa = test: Transfection efficiency with a luciferase encoding vector, HeLa cell-line
Procedure: as §2, §3

293-EBNA = test: Transfection efficiency with a luciferase encoding vector, 293-EBNA cell-line
Procedure: as §2, §3

| Compound | Beta-galactosidase activity 0.2 μg DNA/well (COS-1 cells) | Beta-galactosidase activity 1 μg DNA/well (COS-1 cells) | other results |
| --- | --- | --- | --- |
| N^α oleoyl-L lysyl-L lysine ethyl ester | 0 μunits of beta-galactosidase p | 1333 μunits of beta-galactosidase p |  |
| CCCCCCCCCCCCCCCC(=O)N[C@@H](CCCN)C(=O)N[C@@H](CCCN)C(=O)OC [N^α palmitoyl-L ornithyl-L ornithine methyl ester] | 44 μunits of beta-galactosidase p | 789 μunits of beta-galactosidase p |  |
| N^α methyl arachidoyl-L lysyl-L lysine methyl ester | 0 μunits of beta-galactosidase p | 148 μunits of beta-galactosidase p |  |
| N^α palmitoyl-L lysyl-L lysine ethyl ester | 138 μunits of beta-galactosidase p | 424 μunits of beta-galactosidase p |  |
| CCCCCCCCCCCCCCCC(=O)N[C@@H](CCCCN)C(=O)N[C@@H](CO)C(=O)OC [N^α palmitoyl-L lysyl-L serine methyl ester] | 0 μunits of beta-galactosidase p | 219 μunits of beta-galactosidase p |  |
| N^α palmitoyl-L (α,γ-diaminobutyryl)-L lysine methyl ester |  | 791 μunits of beta-galactosidase p |  |
| CCCCCCCCCCCCCCCC(=O)NCC[C@H](N)C(=O)N[C@H](CCN)C(=O)N[C@H](CCN)C(=O)N[C@@H](CCN)C(=O)NN [N^γ palmitoyl-L (α,γ-diaminobutyryl)-D (α,γ-diaminobutyryl)-D (α,γ-diaminobutyryl)-L (α,γ-diaminobutyric acid) hyrazide] (H-[Dab](Palmitoyl)[dDab][dDab][Dab]-NHNH2) | 497 μunits of beta-galactosidase p | 542 μunits of beta-galactosidase p |  |
| CCCCCCCCCCCCCCCC(=O)N[C@@H](CCCNC(=N)N)C(=O)N[C@@H](CCCNC(=N)N)C(=O)OCC [N^α palmitoyl-L arginyl-L arginine ethyl ester] (Palmitoyl-Arg-Arg-OEt) | 0 μunits of beta-galactosidase p | 382 μunits of beta-galactosidase p |  |
| CCCCCCCCCCCCCCCC(=O)N[C@@H](CCCCN)C(=O)N[C@@H](CCCCN)C(=O)N[C@@H](CCCCN)C(=O)NN [N^α palmitoyl-L lysyl-L lysyl-L lysine hydrazide] | 136 μunits of beta-galactosidase p | 2232 μunits of beta-galactosidase p |  |
| CCCCCCCCCCCCCCCC(=O)NC[C@@H](N)C(=O)N[C@@H](CN)C(=O)OCC [N^γ palmitoyl-D (α,ε-diaminopropionyl)-L (α,ε-diaminopropionic acid) ethyl ester] (H-[dDap](Palmitoyl)-[Dap]-OEt) | 359 μunits of beta-galactosidase p | 0 μunits of beta-galactosidase p |  |
| N^γ γ palmitoyl-D (α,ε-diaminopropionyl)-L (α,ε-diaminopropionic acid) hydrazide | 0 μunits of beta-galactosidase p | 3671 μunits of beta-galactosidase p |  |
| CCCCCCCCCCCCCCCC(=O)N[C@@H](CCCNC(=N)N)C(=O)N[C@@H](CCCN)C(=O)OC [N^α palmitoyl-L arginyl-L ornithine methyl ester] (Palmitoyl-Arg-[Orn]-OMe) | 0 μunits of beta-galactosidase p | 870 μunits of beta-galactosidase p |  |
| CCCCCCCCCCCCCCCC(=O)N[C@@H](CCN)C(=O)N[C@@H](CCN)C(=O)NN [N^α palmitoyl-L (α,γ-diaminobutyryl)-L (α,γ-diaminobutyric acid) hydrazide] (Palmitoyl-[Dab]-[Dab]-NHNH2) | 2742 μunits of beta-galactosidase p | 3519 μunits of beta-galactosidase p |  |
| CCCCCCCCCCCCCCCC(=O)N[C@@H](CCCCN)C(=O)N[C@@H](CCCCN)C(=O)NCc1ccccc1 [N^α palmitoyl-L lysyl-L lysine benzylamide] | 510 μunits of beta-galactosidase p | 845 μunits of beta-galactosidase p |  |
| N^ε palmitoyl-L lysyl-L lysine methyl ester | 0 μunits of beta-galactosidase p | 100 μunits of beta-galactosidase p |  |
| CCCCCCCCCCCCCCCC(=O)N[C@@H](CCN)C(=O)NN [N^α palmitoyl-L (α,γ-diaminobutyric acid) hydrazide] |  | 1411 μunits of beta-galactosidase p |  |
| N^ε palmitoyl-L lysyl-L lysyl-L lysine methyl ester | 0 μunits of beta-galactosidase p | 1426 μunits of beta-galactosidase p |  |
| CCCCCCCCCCCCCCCC(=O)NCC[C@@H](N)C(=O)N[C@H](CCN)C(=O)N[C@@H](CCN)C(=O)NN [N^γ palmitoyl-D (α,γ-diaminobutyryl)-D (α,γ-diaminobutyryl)-L (α,γ-diaminobutyric acid) hydrazide] (H-[dDab](Palmitoyl)-[dDab]-[Dab]-NHNH2) | 1847 μunits of beta-galactosidase p | 7768 μunits of beta-galactosidase p |  |
| CCCCCCCCCCCCCCCC(=O)NCC[C@H](N)C(=O)N[C@@H](CCN)C(=O)N[C@@H](CCN)C(=O)N[C@@H](CCN)C(=O)NN [N^γ palmitoyl-L (α,γ-diaminobutyryl)-L (α,γ-diaminobutyryl)-L (α,γ-diaminobutyryl)-L (α,γ-diaminobutyric acid) hydrazide] (H-[Dab](Palmitoyl)[Dab][Dab][Dab]-NHNH2) | 1800 μunits of beta-galactosidase p | 7835 μunits of beta-galactosidase p |  |
| N^α palmitoyl-L lysyl-L lysine methyl ester | 0 μunits of beta-galactosidase p | 150 μunits of beta-galactosidase p |  |
| CCCCCCCCCCCCCCCC(=O)N[C@@H](CCCCN)C(=O)N[C@@H](CCCCN)C(=O)O [N^α palmitoyl-L lysyl-L lysine] | 0 μunits of beta-galactosidase p | 530 μunits of beta-galactosidase p |  |
| CCCCCCCCCCCCCCCC(=O)NCC[C@@H](N)C(=O)N[C@@H](CCN)C(=O)NN [cpd A, Nγ-palmitoyl-D-(α,γ-diaminobutyryl)-L-(α,γ-diaminobutyric acid) hydrazide] (H-[dDab](Palmitoyl)-[Dab]-NHNH2) | 5772 μunits of beta-galactosidase p | 9942 μunits of beta-galactosidase p | transfection efficiency expressed as beta-galactosidase activity (COS-1 cells; Example 2: DOPE/dicaproyl phosphatidylcholine mixed micelles, plasmid pCH110, 0.2 μg of DNA per well): 7280 μUnits per well; transfection efficiency expressed as beta-galactosidase activity (COS-1 cells; Example 2: DOPE/dicaproyl phosphatidylcholine mixed micelles, plasmid pCH110, 1 μg of DNA per well): 6375 μUnits per well; transfection efficiency expressed as beta-galactosidase activity (COS-1 cells; Example 3: compound premixed with DOPE liposomes, then added to DNA, 0.2 μg of DNA per well): 4205 μUnits per well; transfection efficiency expressed as beta-galactosidase activity (COS-1 cells; Example 3: compound premixed with DOPE liposomes, then added to DNA, 1 μg of DNA per well): 7880 μUnits per well; enhancement cpd A over Lipofectamine (CHO K1): 33; enhancement cpd A over Lipofectamine (LM tk-): 12; enhancement cpd A over Lipofectamine (HeLa): 4; enhancement cpd A over Lipofectamine (293-EBNA): 5 |
